Experimental data from patent US8871713B2, “Formulations of growth hormone releasing factor (GRF) molecules with improved stability” (Theratechnologies Inc., priority 2013, dated 2014).
Entries after “also recorded” stand apart in the source; their conditions may differ. *1 amine or outer side, *2 acyl side, *3 side chain or, on linkers, in order; H or OH if unused. [ ]: non-standard residue; d: D form. The star is where a group is joined. βAsp = O=C(O)[C@H](CC(=O)[*:2])N[*:1]; Hexenoyl(3E) = CC/C=C/CC(=O)*

Assays:
human GRF receptor = target: T1, human GRF receptor (Homo sapiens, UniProt Q02643); test: Reporter gene assay in BHK cells (cAMP-inducible alkaline phosphatase); format: cell-based; conditions: for Emax / SNR (signal to noise ratio) / EC50: 24 h; for EC50: peptides 10^-5 M to 10^-12 M
T1 construct: expressed in transfected cells
T1 sequence (Q02643 23-423): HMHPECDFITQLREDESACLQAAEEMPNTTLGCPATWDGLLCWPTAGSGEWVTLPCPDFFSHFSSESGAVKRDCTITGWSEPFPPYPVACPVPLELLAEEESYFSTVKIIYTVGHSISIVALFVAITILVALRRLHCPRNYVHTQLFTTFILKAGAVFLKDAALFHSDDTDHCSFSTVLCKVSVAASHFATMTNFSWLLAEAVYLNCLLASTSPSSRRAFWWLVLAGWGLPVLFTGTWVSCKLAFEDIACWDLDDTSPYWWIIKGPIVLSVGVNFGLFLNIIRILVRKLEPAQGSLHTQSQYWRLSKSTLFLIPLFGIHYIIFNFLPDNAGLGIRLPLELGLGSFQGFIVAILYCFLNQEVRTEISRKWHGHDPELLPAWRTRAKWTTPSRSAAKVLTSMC
Description: BHK cells stably transfected with the human GRF receptor and an alkaline phosphatase reporter gene were plated in 96-well plates at 5×10^4 cells/well and incubated overnight. The next day, cells were washed twice with PBS and maintained for 10-30 min. in assay buffer (DMEM without phenol red, 20 mM HEPES and 1% heat-inactivated fetal bovine serum (FBS)). Peptides from 10^−5 M to 10^−12 M were added to the cells and incubated for 24 h. The alkaline phosphatase level in the culture supernatants were performed using the Alkaline Phosphatase detection kit from Invitrogen® (cat. #T1017).

GH secretion = test: GH response in female Sprague-Dawley rats (plasma GH ELISA); format: in vivo, rat; conditions: for GH secretion in rats (in words) / AUC(0-60min) of GH / TMAX of GH / AUC(0-60 min) of GH, fold lower than TH9507 / Cmax of GH, fold lower than TH9507: female rats; for GH secretion in rats (in words) / AUC(0-60 min) of GH, fold lower than TH9507 / Cmax of GH, fold lower than TH9507: 10 μg/rat; for AUC(0-60min) of GH / TMAX of GH: 10 μg/rat subcutaneous, 5% mannitol
Description: The reporter gene assay was performed on baby hamster kidney (BHK) cells stably expressing the human GRF receptor and a cAMP-inducible alkaline phosphatase reporter gene; the peptides were tested at concentrations from 1 pM to 10 μM. Acute GH response was measured in blood samples obtained from female rats that were injected with 10 μg/rat peptides in 5% mannitol.
Sprague-Dawley rats (female, 250-300 g) were obtained from Charles River Inc. The animals were kept in groups of 4 rats per cage and were maintained on standard laboratory chow in 12:12 light:dark cycle.
On the day of the experiment, the animals were anesthetized with 2.5% isoflurane. A mid-section opening was made in the neck to expose the carotid artery. The carotid artery was cannulated with polypropylene tube (PE-50) for blood withdrawal. The rats were subcutaneously injected with the peptides (10 μg/rat) dissolved in formulation 5 (20 mM Sodium Acetate, 5% D-mannitol pH 5 (adjusted with AcOH). Blood samples (400 μL) were collected at pre-dose and at 5, 10, 15, 30 and 60 minutes after the injection into microtainer tubes containing K3EDTA and 25 μl of acidified Hank's buffered salt solution (AHBSS). The samples were immediately centrifuged in a microfuge for 2 minutes and the plasma was collected into screwcap Eppendorf™ tubes and quickly frozen in liquid nitrogen. The samples were kept at −80° C.
Rat plasma samples were thawed on ice, vortexed briefly to mix the contents and centrifuged at 9,000 RPM for 2 min at 4° C. GH levels were determined using the Rat/Mouse Growth Hormone ELISA kit from Millipore® (Cat. #EZRMGH-45K). Samples were diluted 10-fold with the assay buffer and 10 μl of the diluted samples were added along with 90 μl of assay buffer to the ELISA plate. The remainder of the assay was performed according to the manufacturer's protocol.
The standard curve was plotted using the 4-parameter logistic equation using GraphPad Prism™ software and was used to determine the GH concentration of plasma samples. The data were analyzed using one-way analysis of variance. Bonferroni's test was used to make comparisons among different treatments.

[1] = Formation of TH0601 from TH05111 or tesamorelin with and without HP-β-CD (FIG. 19); format: physicochemical; conditions: 8 mg/mL peptide, 10% HP-β-CD vs 5% mannitol, pH 6
Description: Isomerization of Asp^8 in the structure of TH05111 leads to formation of the tesamorelin degradant TH0601, which makes it possible to monitor degradation by using the same chromatographic conditions as for tesamorelin.
The comparison of the kinetics of TH0601 formation in the solutions containing 8 mg/mL of TH05111 or tesamorelin with and without HP-β-CD is shown in FIG. 19.

| Compound | In vitro potency compared to TH9507 (in words) (human GRF receptor) | GH secretion in rats (in words) (GH secretion) | AUC(0-60min) of GH (GH secretion) | TMAX of GH (GH secretion) | EC50 fold higher than TH9507 (human GRF receptor) | Emax (human GRF receptor) | SNR (signal to noise ratio) (human GRF receptor) | EC50 (human GRF receptor) | Isomerization of the Asp^8 residue in the presence of HP-β-CD [1] | AUC(0-60 min) of GH, fold lower than TH9507 (GH secretion) | Cmax of GH, fold lower than TH9507 (GH secretion) | GH-releasing activity in vivo compared to parent molecule (GH secretion; relative to tesamorelin, FIG. 1) |
| --- | --- | --- | --- | --- | --- | --- | --- | --- | --- | --- | --- | --- |
| CC/C=C/CC(=O)N[C@@H](Cc1ccc(O)cc1)C(=O)N[C@@H](C)C(=O)N[C@@H](CC(=O)O)C(=O)N[C@@H](C)C(=O)N[C@H](C(=O)N[C@@H](Cc1ccccc1)C(=O)N[C@H](C(=O)N[C@@H](CC(N)=O)C(=O)N[C@@H](CO)C(=O)N[C@@H](Cc1ccc(O)cc1)C(=O)N[C@@H](CCCNC(=N)N)C(=O)N[C@@H](CCCCN)C(=O)N[C@H](C(=O)N[C@@H](CC(C)C)C(=O)NCC(=O)N[C@@H](CCC(N)=O)C(=O)N[C@@H](CC(C)C)C(=O)N[C@@H](CO)C(=O)N[C@@H](C)C(=O)N[C@@H](CCCNC(=N)N)C(=O)N[C@@H](CCCCN)C(=O)N[C@@H](CC(C)C)C(=O)N[C@@H](CC(C)C)C(=O)N[C@@H](CCC(N)=O)C(=O)N[C@@H](CC(=O)O)C(=O)N[C@H](C(=O)N[C@@H](CC[S+](C)[O-])C(=O)N[C@@H](CO)C(=O)N[C@@H](CCCNC(=N)N)C(=O)N[C@@H](CCC(N)=O)C(=O)N[C@@H](CCC(N)=O)C(=O)NCC(=O)N[C@@H](CCC(=O)O)C(=O)N[C@@H](CO)C(=O)N[C@@H](CC(N)=O)C(=O)N[C@@H](CCC(N)=O)C(=O)N[C@@H](CCC(=O)O)C(=O)N[C@@H](CCCNC(=N)N)C(=O)NCC(=O)N[C@@H](C)C(=O)N[C@@H](CCCNC(=N)N)C(=O)N[C@@H](C)C(=O)N[C@@H](CCCNC(=N)N)C(=O)N[C@@H](CC(C)C)C(N)=O)[C@@H](C)CC)C(C)C)[C@@H](C)O)[C@@H](C)CC (some centres unmarked) [TH0286, N-Hex-hGRF[1-44]Met[O]27 amide] | comparable to TH9507 | not significantly different | 14751 ± 5745 ng·min/mL | 10 min |  |  |  |  |  |  |  |  |
| CC/C=C/CC(=O)N[C@@H](Cc1ccc(O)cc1)C(=O)N[C@@H](C)C(=O)N[C@@H](CC(=O)N[C@@H](C)C(=O)N[C@H](C(=O)N[C@@H](Cc1ccccc1)C(=O)N[C@H](C(=O)N[C@@H](CC(N)=O)C(=O)N[C@@H](CO)C(=O)N[C@@H](Cc1ccc(O)cc1)C(=O)N[C@@H](CCCNC(=N)N)C(=O)N[C@@H](CCCCN)C(=O)N[C@H](C(=O)N[C@@H](CC(C)C)C(=O)NCC(=O)N[C@@H](CCC(N)=O)C(=O)N[C@@H](CC(C)C)C(=O)N[C@@H](CO)C(=O)N[C@@H](C)C(=O)N[C@@H](CCCNC(=N)N)C(=O)N[C@@H](CCCCN)C(=O)N[C@@H](CC(C)C)C(=O)N[C@@H](CC(C)C)C(=O)N[C@@H](CCC(N)=O)C(=O)N[C@@H](CC(=O)O)C(=O)N[C@H](C(=O)N[C@@H](CCSC)C(=O)N[C@@H](CO)C(=O)N[C@@H](CCCNC(=N)N)C(=O)N[C@@H](CCC(N)=O)C(=O)N[C@@H](CCC(N)=O)C(=O)NCC(=O)N[C@@H](CCC(=O)O)C(=O)N[C@@H](CO)C(=O)N[C@@H](CC(N)=O)C(=O)N[C@@H](CCC(N)=O)C(=O)N[C@@H](CCC(=O)O)C(=O)N[C@@H](CCCNC(=N)N)C(=O)NCC(=O)N[C@@H](C)C(=O)N[C@@H](CCCNC(=N)N)C(=O)N[C@@H](C)C(=O)N[C@@H](CCCNC(=N)N)C(=O)N[C@@H](CC(C)C)C(N)=O)[C@@H](C)CC)C(C)C)[C@@H](C)O)[C@@H](C)CC)C(=O)O [TH0677, β-Asp^3 tesamorelin] |  | did not produce GH; also recorded: did not stimulate GH secretion; also recorded: biologically inactive |  |  | 71 fold | 116 ± 25.8% | 25.9 |  |  |  |  |  |
| CC/C=C/CC(=O)N[C@@H](Cc1ccc(O)cc1)C(=O)N[C@@H](C)C(=O)N[C@H]1CC(=O)N([C@@H](C)C(=O)N[C@H](C(=O)N[C@@H](Cc2ccccc2)C(=O)N[C@H](C(=O)N[C@@H](CC(N)=O)C(=O)N[C@@H](CO)C(=O)N[C@@H](Cc2ccc(O)cc2)C(=O)N[C@@H](CCCNC(=N)N)C(=O)N[C@@H](CCCCN)C(=O)N[C@H](C(=O)N[C@@H](CC(C)C)C(=O)NCC(=O)N[C@@H](CCC(N)=O)C(=O)N[C@@H](CC(C)C)C(=O)N[C@@H](CO)C(=O)N[C@@H](C)C(=O)N[C@@H](CCCNC(=N)N)C(=O)N[C@@H](CCCCN)C(=O)N[C@@H](CC(C)C)C(=O)N[C@@H](CC(C)C)C(=O)N[C@@H](CCC(N)=O)C(=O)N[C@@H](CC(=O)O)C(=O)N[C@H](C(=O)N[C@@H](CCSC)C(=O)N[C@@H](CO)C(=O)N[C@@H](CCCNC(=N)N)C(=O)N[C@@H](CCC(N)=O)C(=O)N[C@@H](CCC(N)=O)C(=O)NCC(=O)N[C@@H](CCC(=O)O)C(=O)N[C@@H](CO)C(=O)N[C@@H](CC(N)=O)C(=O)N[C@@H](CCC(N)=O)C(=O)N[C@@H](CCC(=O)O)C(=O)N[C@@H](CCCNC(=N)N)C(=O)NCC(=O)N[C@@H](C)C(=O)N[C@@H](CCCNC(=N)N)C(=O)N[C@@H](C)C(=O)N[C@@H](CCCNC(=N)N)C(=O)N[C@@H](CC(C)C)C(N)=O)[C@@H](C)CC)C(C)C)[C@@H](C)O)[C@@H](C)CC)C1=O [TH1063, Asu^3 tesamorelin] |  |  |  |  |  | 95.7 ± 8.1% |  |  |  |  |  |  |
| CC/C=C/CC(=O)N[C@@H](Cc1ccc(O)cc1)C(=O)N[C@@H](C)C(=O)N[C@@H](CC(=O)O)C(=O)N[C@@H](C)C(=O)N[C@H](C(=O)N[C@@H](Cc1ccccc1)C(=O)N[C@H](C(=O)N[C@@H](CC(N)=O)C(=O)N[C@@H](CO)C(=O)N[C@@H](Cc1ccc(O)cc1)C(=O)N[C@@H](CCCNC(=N)N)C(=O)N[C@@H](CCCCN)C(=O)N[C@H](C(=O)N[C@@H](CC(C)C)C(=O)NCC(=O)N[C@@H](CCC(N)=O)C(=O)N[C@@H](CC(C)C)C(=O)N[C@@H](CO)C(=O)N[C@@H](C)C(=O)N[C@@H](CCCNC(=N)N)C(=O)N[C@@H](CCCCN)C(=O)N[C@@H](CC(C)C)C(=O)N[C@@H](CC(C)C)C(=O)N[C@@H](CCC(N)=O)C(=O)N[C@@H](CC(=O)O)C(=O)N[C@H](C(=O)N[C@@H](CCSC)C(=O)N[C@@H](CO)C(=O)N[C@@H](CCCNC(=N)N)C(=O)N[C@@H](CCC(N)=O)C(=O)N[C@@H](CCC(N)=O)C(=O)NCC(=O)N[C@@H](CCC(=O)O)C(=O)N[C@@H](CO)C(=O)N[C@@H](CC(N)=O)C(=O)N[C@@H](CCC(N)=O)C(=O)N[C@@H](CCC(=O)O)C(=O)N[C@@H](CCCNC(=N)N)C(=O)NCC(=O)N[C@@H](C)C(=O)N[C@@H](CCCNC(=N)N)C(=O)N[C@@H](C)C(=O)N[C@@H](CCCNC(=N)N)C(=O)N[C@@H](CC(C)C)C(N)=O)[C@@H](C)CC)C(C)C)[C@@H](C)O)[C@@H](C)CC [TH9507, [trans-3-hexenoyl]hGRF (1-44) amide] |  |  | 18953 ± 6317 ng·min/mL | 10 min |  | 100 ± 11.3% | 22.3 |  |  |  |  |  |
| {Hexenoyl(3E)}-YADAIFTDSYRKVLGQLSARKLLQDIMSRQQGESNQERGARARL-NH2 [TH05111, Asp^8 tesamorelin] | comparable to TH9507; also recorded: equipotent |  | 6540 ± 2647 ng·min/mL | 5 min |  | 114 ± 17% | 25.3 | 0.08 ± 0.02 nM | facilitated | 2.9 fold | 2.2 fold | ~30% |
| {Hexenoyl(3E)}-YADAIFT[βAsp]SYRKVLGQLSARKLLQDIMSRQQGESNQERGARARL-NH2 [TH0601, β-Asp^8 tesamorelin] |  | biologically inactive | 1533 ± 734 ng·min/mL | 5 min | 500 fold | 120 ± 23.5% | 26.9 | 30 ± 30.4 nM |  | 12.4 fold | 14.0 fold |  |
